The target of data set [1] is T1, CYP2C9 (Homo sapiens, UniProt P11712). Briefly: Inhibition of CYP2C9 in HBV-infected human HepaRG cells at 10 mM using luciferin-H as substrate treated for 1 hr on day 5 post-infection followed by removal of media and supplemented with fresh media and further incubated for 3 days then followed by treatment for 1 hr on day 8 post-infection followed by removal of media and supplemented with fresh media and further incubated for 3 days and measured on day 11 post-infection by P450-Glo chemiluminescent assay relative to control. The data set is classed as ADME, tissue-based. To be noted: probe luciferin-H.
T1 sequence (P11712 whole entry): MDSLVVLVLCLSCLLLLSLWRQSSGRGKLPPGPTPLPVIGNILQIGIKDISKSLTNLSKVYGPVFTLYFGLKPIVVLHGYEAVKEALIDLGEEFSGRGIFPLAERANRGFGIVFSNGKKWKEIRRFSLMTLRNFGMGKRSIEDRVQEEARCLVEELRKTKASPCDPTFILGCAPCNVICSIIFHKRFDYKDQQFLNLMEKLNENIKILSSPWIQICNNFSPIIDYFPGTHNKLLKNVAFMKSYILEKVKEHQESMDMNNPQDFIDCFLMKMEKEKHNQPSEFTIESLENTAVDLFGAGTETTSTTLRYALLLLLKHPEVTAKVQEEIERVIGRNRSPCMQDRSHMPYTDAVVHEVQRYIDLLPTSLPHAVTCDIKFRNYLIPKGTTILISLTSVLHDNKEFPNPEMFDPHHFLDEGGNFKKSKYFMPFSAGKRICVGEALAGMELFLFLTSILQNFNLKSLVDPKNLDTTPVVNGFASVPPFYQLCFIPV

For data set [2], the target named is T2, Cytochrome P450 2C9 (Homo sapiens, UniProt P11712). Briefly: Inhibition of CYP2C9 in HBV-infected human primary hepatocytes cells at 0.2 to 20 mM using luciferin-H as substrate treated for 1 hr on day 5 post-infection followed by removal of media and supplemented with fresh media and further incubated for 3 days then followed by treatment for 1 hr on day 8 post-infection followed by removal of media and supplemented with fresh media and further incubated for 3 days and measured on day 11 post-infection by P450-Glo chemiluminescent assay. Format: ADME, tissue-based, Primary hepatocyte. Conditions: 20000 µM, dose 0.2-20 mM.
T2 sequence (P11712 whole entry): as above

In data set [3] the target is T2, Cytochrome P450 2C9. Briefly: Inhibition of CYP2C9 in HBV-infected human HepaRG cells at 0.2 to 20 mM using luciferin-H as substrate treated for 1 hr on day 5 post-infection followed by removal of media and supplemented with fresh media and further incubated for 3 days then followed by treatment for 1 hr on day 8 post-infection followed by removal of media and supplemented with fresh media and further incubated for 3 days and measured on day 11 post-infection by P450-Glo chemiluminescent assay. To be noted: 20000 µM, dose 0.2-20 mM. The data set is classed as ADME, tissue-based.

The target in data set [4] is Cytochrome P450 3A4 (Homo sapiens, UniProt P08684). Briefly: Inhibition of CYP3A4 in HBV-infected human HepaRG cells at 0.2 to 20 mM using luciferin-IPA as substrate treated for 1 hr on day 5 post-infection followed by removal of media and supplemented with fresh media and further incubated for 3 days then followed by treatment for 1 hr on day 8 post-infection followed by removal of media and supplemented with fresh media and further incubated for 3 days and measured on day 11 post-infection by P450-Glo chemiluminescent assay. Format: ADME, tissue-based. Conditions: 20000 µM, dose 0.2-20 mM.
Cytochrome P450 3A4, sequence (P08684 whole entry): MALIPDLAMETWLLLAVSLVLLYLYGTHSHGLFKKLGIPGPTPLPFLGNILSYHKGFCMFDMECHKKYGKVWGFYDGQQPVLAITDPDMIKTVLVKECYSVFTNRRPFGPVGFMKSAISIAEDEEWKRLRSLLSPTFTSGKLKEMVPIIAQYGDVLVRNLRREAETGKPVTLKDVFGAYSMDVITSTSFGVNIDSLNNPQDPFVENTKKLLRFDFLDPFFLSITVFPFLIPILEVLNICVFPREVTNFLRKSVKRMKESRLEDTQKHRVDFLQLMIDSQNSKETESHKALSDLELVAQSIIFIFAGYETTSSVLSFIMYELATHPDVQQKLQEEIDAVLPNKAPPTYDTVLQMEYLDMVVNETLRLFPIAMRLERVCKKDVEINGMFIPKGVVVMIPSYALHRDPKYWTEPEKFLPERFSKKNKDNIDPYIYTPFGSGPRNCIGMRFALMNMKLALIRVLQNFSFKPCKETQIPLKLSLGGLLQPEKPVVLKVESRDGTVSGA

The test system of data set [5] is Hepatitis B virus. Briefly: Antiviral activity against Hepatitis B virus infected in human primary hepatocytes assessed as reduction in HbsAg secretion level at 10 mM treated for 1 hr on day 5 post-infection followed by removal of media and supplemented with fresh media and further incubated for 3 days then followed by treatment for 1 hr on day 8 post-infection followed by removal of media and supplemented with fresh media and further incubated for 3 days in presence of 50 uM SKF-525A and measured on day 11 post-infection by chemiluminescence immunostaining assay relative to control. The data set is classed as functional, organism-based. Conditions: Primary hepatocyte.

For data set [6], the system named is HepaRG. As to the kind of experiment: Cytotoxicity against human HepaRG cells infected with HBV assessed as reduction in cell viability at 0.2 to 20 mM treated for 1 hr on day 5 post-infection followed by removal of media and supplemented with fresh media and further incubated for 3 days then followed by treatment for 1 hr on day 8 post-infection followed by removal of media and supplemented with fresh media and further incubated for 3 days and measured on day 11 post-infection by Celltiter-Glo assay. Format: cell-based. Conditions: 20000 µM, dose 0.2-20 mM. (Cellular ATP, detected with luciferase, serves as a proxy for viable cell number.)

Data set [7] concerns the target T1, CYP2C9. As to the kind of experiment: Inhibition of CYP2C9 in HBV-infected human HepaRG cells at 10 mM using luciferin-H as substrate treated for 1 hr on day 5 post-infection followed by removal of media and supplemented with fresh media and further incubated for 3 days then followed by treatment for 1 hr on day 8 post-infection followed by removal of media and supplemented with fresh media and further incubated for 3 days in presence of 50 uM SKF-525A and measured on day 11 post-infection by P450-Glo chemiluminescent assay relative to control. The data set is classed as ADME, tissue-based. Conditions: probe luciferin-H, with SKF-525A 50 uM.

The target in data set [8] is CYP3A4 (Homo sapiens, UniProt P08684). Briefly: Inhibition of CYP3A4 in HBV-infected human HepaRG cells at 50 uM using luciferin-IPA as substrate treated for 1 hr on day 5 post-infection followed by removal of media and supplemented with fresh media and further incubated for 3 days in presence of 10 mM ABT by P450-Glo chemiluminescent assay relative to control. Format: ADME, tissue-based. To be noted: probe luciferin-IPA, with ABT 10 mM.
CYP3A4, sequence (P08684 whole entry): as above

Data set [9] deals with T3, Cytochrome P450 1A2 (Homo sapiens, UniProt P05177).
T3 sequence (P05177 whole entry): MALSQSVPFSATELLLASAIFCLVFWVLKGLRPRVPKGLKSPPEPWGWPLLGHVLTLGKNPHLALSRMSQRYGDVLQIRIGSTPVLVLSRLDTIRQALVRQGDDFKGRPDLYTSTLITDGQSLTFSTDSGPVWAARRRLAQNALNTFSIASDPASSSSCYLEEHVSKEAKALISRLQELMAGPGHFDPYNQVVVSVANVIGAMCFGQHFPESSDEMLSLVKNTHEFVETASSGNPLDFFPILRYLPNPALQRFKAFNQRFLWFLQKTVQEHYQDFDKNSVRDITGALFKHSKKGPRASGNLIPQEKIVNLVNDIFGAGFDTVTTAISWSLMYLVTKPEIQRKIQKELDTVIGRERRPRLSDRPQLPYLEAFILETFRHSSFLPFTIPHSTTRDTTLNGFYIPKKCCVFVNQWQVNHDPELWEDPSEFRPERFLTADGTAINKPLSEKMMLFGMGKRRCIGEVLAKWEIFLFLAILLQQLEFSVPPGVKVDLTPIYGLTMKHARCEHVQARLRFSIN
As to the kind of experiment: Inhibition of CYP1A2 in HBV-infected human primary hepatocytes cells at 5 to 100 uM using luciferin-1A2 as substrate treated for 1 hr on day 5 post-infection followed by removal of media and supplemented with fresh media and further incubated for 3 days then followed by treatment for 1 hr on day 8 post-infection followed by removal of media and supplemented with fresh media and further incubated for 3 days and measured on day 11 post-infection by P450-Glo chemiluminescent assay. Conditions: dose 5-100 µM. The data set is classed as ADME, tissue-based, Primary hepatocyte.

Data set [10] has as its target T2, Cytochrome P450 2C9. As to the kind of experiment: Inhibition of CYP2C9 in HBV-infected human primary hepatocytes at 5 to 100 uM using luciferin-H as substrate treated for 1 hr on day 5 post-infection followed by removal of media and supplemented with fresh media and further incubated for 3 days then followed by treatment for 1 hr on day 8 post-infection followed by removal of media and supplemented with fresh media and further incubated for 3 days and measured on day 11 post-infection by P450-Glo chemiluminescent assay. Format: ADME, tissue-based, Primary hepatocyte. Conditions: dose 5-100 µM.

Data set [11] deals with T2, Cytochrome P450 2C9. Briefly: Inhibition of CYP2C9 in HBV-infected human HepaRG cells at 5 to 100 uM using luciferin-H as substrate treated for 1 hr on day 5 post-infection followed by removal of media and supplemented with fresh media and further incubated for 3 days then followed by treatment for 1 hr on day 8 post-infection followed by removal of media and supplemented with fresh media and further incubated for 3 days and measured on day 11 post-infection by P450-Glo chemiluminescent assay. Format: ADME, tissue-based. Conditions: dose 5-100 µM.

Data set [12] concerns Hepatitis B virus. Briefly: Antiviral activity against Hepatitis B virus infected in human HepaRG cells assessed as reduction in HbsAg secretion level at 50 uM treated for 1 hr on day 5 post-infection followed by removal of media and supplemented with fresh media and further incubated for 3 B37days then followed by treatment for 1 hr on day 8 post-infection followed by removal of media and supplemented with fresh media and further incubated for 3 days in presence of 10 mM ABT and measured on day 11 post-infection by chemiluminescence immunostaining assay. The data set is classed as functional, organism-based.

A word on the inhibition: it is the change of the read-out against control, counted positive when it falls.

The source made the active and inactive calls. The calls are words filed in the database; no cut-off is given here.

As for `Nn1nnc2ccccc21`, the inhibition at 1 h, 10000 µM in [1] stood at 67.5%; in data set [7], 82.1%. For the same molecule, the “inhibition (INH)” value in data set [2], in data set [3] and in [4] was “Active” each time. Besides, in data set [5], the result was inactive. Moreover, the Activity entry in data set [6] was “Non-Toxic”.

For `CCCC(C(=O)OCCN(CC)CC)(c1ccccc1)c1ccccc1` [PROADIFEN], the inhibition at 1 h, 50 µM in data set [8] was 83.3%. Moreover, the “inhibition (INH)” value in data set [9], in data set [10] and in data set [11] was “Active” throughout. In data set [12], the outcome was inactive.

The record behind these values is ChEMBL document CHEMBL4725437, “P450s under Restriction (PURE) Screen Using HepaRG and Primary Human Hepatocytes for Discovery of Novel HBV Antivirals” (ACS Med Chem Lett, 2020).
